Experimental data reported in publication PMC2199082 (The Journal of Experimental Medicine, 1997).
No end group written: not given here.

What was measured:
murine calvaria = assay: Calvarial bone resorption assay; assay type: cell-based, mouse; details: for osteolytic activity of peptides in the calvarial assay: graded concentrations, three separate experiments
[1] = test system: human osteoblast-like cell line MG63; assay: Osteoblast proliferation; assay type: cell-based; details: subconfluent MG63, 24 h, DMEM 2% FCS, [3H]thymidine last 6 h

Q: With “1–58: synthetic Mt cpn10 peptide, residues 1–58 (MAKVNIKPLEDKILVQANEAETTTASGLVIPDTAKEKPQEGTVVAVGPGRWDEDGEKR; also: dimer; UniProt P9WPE5 1-58, looked up, fragment)” as the molecule, how does the “osteolytic activity of peptides in the calvarial assay” value (murine calvaria) read?
A: inactive

Q: For “46–99: synthetic Mt cpn10 peptide, residues 46–99 (VGPGRWDEDGEKRIPLDVAEGDTVIYSKYGGTEIKYNGEEYLILSARDVLAVVS; UniProt P9WPE5 46-99, looked up, fragment)”, which “osteolytic activity of peptides in the calvarial assay” value (murine calvaria) is on record?
A: inactive

Q: Which “osteolytic activity of peptides in the calvarial assay” value (murine calvaria) does the source give for “51–99: synthetic Mt cpn10 peptide, residues 51–99 (WDEDGEKRIPLDVAEGDTVIYSKYGGTEIKYNGEEYLILSARDVLAVVS; UniProt P9WPE5 51-99, looked up, fragment)” here?
A: inactive

Q: Which “osteolytic activity of peptides in the calvarial assay” value (murine calvaria) does the source give for “54–99: synthetic Mt cpn10 peptide, residues 54–99 (DGEKRIPLDVAEGDTVIYSKYGGTEIKYNGEEYLILSARDVLAVVS; UniProt P9WPE5 54-99, looked up, fragment)” here?
A: inactive

Q: “59–99: synthetic Mt cpn10 peptide, residues 59–99 (IPLDVAEGDTVIYSKYGGTEIKYNGEEYLILSARDVLAVVS; UniProt P9WPE5 59-99, looked up, fragment)” was tested. Which “osteolytic activity of peptides in the calvarial assay” value (murine calvaria) did it give?
A: inactive

Q: For “65–99: synthetic Mt cpn10 peptide, residues 65–99 (EGDTVIYSKYGGTEIKYNGEEYLILSARDVLAVVS; UniProt P9WPE5 65-99, looked up, fragment)”, which “osteolytic activity of peptides in the calvarial assay” value (murine calvaria) is on record?
A: reproducible osteolytic activity

Q: How did the “osteolytic activity of peptides in the calvarial assay” value (murine calvaria) turn out when GGIVLTGSAAA [GroES residues 23–33] was run?
A: osteolytic activity

Q: TTTASGLVIPDTAKE [21–35] was tested. Which “osteolytic activity of peptides in the calvarial assay” value (murine calvaria) did it give?
A: osteolytic activity

Q: With “calcitonin (CGNLSTCMLGTYTQDFNKFHTFPQTAIGVGAP; ends and bridges not checked; cysteine pairing not given here; UniProt P01258 85-116, looked up) [reference compound]” as the molecule, how does the “effect on r-Mt cpn10-induced bone resorption” value (murine calvaria; calcitonin at 10 ng/ml, results not shown) read?
A: blocked

Q: For “lipoarabinomannan [Mt LAM, reference compound]”, which osteolytic activity (murine calvaria; added at a concentration of 1 μg/ml) is on record?
A: no osteolytic activity

Q: For polymyxin B [reference compound], which “effect of addition on bone resorbing activity of r-Mt cpn10” value (murine calvaria) is on record?
A: no effect

Q: What about the “effect of addition on bone resorbing activity of the Mt sonicate” value (murine calvaria) of the same molecule?
A: no effect

Q: What about the “effect on osteolytic activity of peptides 26–99 and 65–99” value (murine calvaria) of the same molecule?
A: no inhibitory effects

B1: r-Mt cpn10: recombinant Mycobacterium tuberculosis chaperonin 10 expressed in Escherichia coli, purified by reversed-phase HPLC to >97% purity (protein, UniProt P9WPE5 2-100, looked up)
Co-chaperonin GroES: AKVNIKPLEDKILVQANEAETTTASGLVIPDTAKEKPQEGTVVAVGPGRWDEDGEKRIPLDVAEGDTVIYSKYGGTEIKYNGEEYLILSARDVLAVVSK
modifications: recombinant, expressed in E. coli
Q: What does the source list for B1?
A: concentration at which osteolytic activity (calcium release) was noted (murine calvaria): 1 ng/mL; concentration at which osteolytic activity was noted, molar equivalent (murine calvaria): 100 pmol; stimulation of bone resorption, measured as calcium release into the tissue culture medium (murine calvaria): dose-dependent stimulation of calcium release; concentrations causing significant inhibition of cell proliferation [1]: ≥ 1 nM; cytotoxicity (lactate dehydrogenase release) (MG63 cells): not due to cytotoxicity
